# Experiments:
# TNFα = test: LPS-induced elevation of plasma TNFα (inflammation model); type: in vivo; conditions: female BALB/c mice; for TNF α ± SEM: plasma one hour after LPS
# Procedure: Injection of bacterial cell wall constituent lipopolysaccharide (LPS) has been used as a model of inflammation. The inflammatory cascade can lead to cellular and organ damage when unchecked.
# Female BALB/c mice […] of age (n=7-8/group) were treated with Vehicle (0.75% HPMC) or PAU p.o. and 30 minutes later LPS (2.5 mg/kg i.p.) was administered. One hour after LPS, mice were sacrificed and blood was collected for measurement of plasma TNFα.
# [1] = Plasma concentrations of uridine, PB and metabolites after oral administration (comparative bioavailability)
# Procedure: The delivery of phenylacetate into the bloodstream after oral administration of PAU was also assessed. Sodium phenylbutyrate is used in clinical practice as an ammonia scavenger in hepatic encephalopathy or genetic nitrogen cycle disorders, or as a chaperone or histone deacetylase inhibitor. It is predominantly metabolized to phenylacetate via beta-oxidation in the liver, and phenylacetate mediates the therapeutic benefits of phenylbutyrate. PAU was administered orally at a dose equimolar to 200 mg/kg sodium phenylbutyrate. Female BALB/c mice (n=3-5 group) were given test compounds p.o. and after 30 minutes were retro-orbitally bled to obtain plasma. […] An equimolar dose or uridine was used as a comparator for efficiency of delivery of uridine into the circulation by oral administration of PAU.
# [2] = female BALB/c mice, p.o., dose equimolar to 200 mg/kg sodium phenylbutyrate, plasma 30 minutes after dosing
Compound,"TNF α ± SEM (TNFα; PAU 165 mg/kg p.o. 30 minutes before LPS 2.5 mg/kg i.p., Vehicle 15,981 ± 2,951)","TNF α ± SEM (TNFα; PAU 331 mg/kg p.o. 30 minutes before LPS 2.5 mg/kg i.p., p < .05 compared to Vehicle (15,981 ± 2,951))",Anti-inflammatory effect in the LPS-induced elevation of plasma TNFα (TNFα; p.o.),"Elevation of plasma uridine and uracil compared with equimolar dose of oral uridine ([1]; oral, mice)","Plasma concentration of PA (phenylacetate) [1, 2] [µM]","Plasma concentration of PB (phenylbutyrate) [1, 2] [µM]"
"O=C(Cc1ccccc1)OC[C@H]1O[C@@H](n2ccc(=O)[nH]c2=O)[C@H](O)[C@@H]1O [PAU, 5′-O-Phenylacetyluridine]","10,068 ± 2,583 pg/ml","7,034 ± 1,236 + pg/ml",significant anti-inflammatory effect,elevated plasma uridine and uracil better,–,–
sodium phenylbutyrate [NaPB],–,–,–,–,401,26

# Source: patent US12630580B2, “5′-O-phenylacetyluridine and therapeutic use” (PHARMA CINQ, LLC, priority 2020, dated 2026)
